The structures appear in SMILES notation.

For the first experiment, the target named is dipeptidyl peptidase IV (Homo sapiens, UniProt P27487). Kind of experiment: biochemical. To be noted: values marked with "*" are ID50 values; read-out: IC50DPIV, values marked with "*" = ID50.
dipeptidyl peptidase IV, sequence (P27487 whole entry, species assumed): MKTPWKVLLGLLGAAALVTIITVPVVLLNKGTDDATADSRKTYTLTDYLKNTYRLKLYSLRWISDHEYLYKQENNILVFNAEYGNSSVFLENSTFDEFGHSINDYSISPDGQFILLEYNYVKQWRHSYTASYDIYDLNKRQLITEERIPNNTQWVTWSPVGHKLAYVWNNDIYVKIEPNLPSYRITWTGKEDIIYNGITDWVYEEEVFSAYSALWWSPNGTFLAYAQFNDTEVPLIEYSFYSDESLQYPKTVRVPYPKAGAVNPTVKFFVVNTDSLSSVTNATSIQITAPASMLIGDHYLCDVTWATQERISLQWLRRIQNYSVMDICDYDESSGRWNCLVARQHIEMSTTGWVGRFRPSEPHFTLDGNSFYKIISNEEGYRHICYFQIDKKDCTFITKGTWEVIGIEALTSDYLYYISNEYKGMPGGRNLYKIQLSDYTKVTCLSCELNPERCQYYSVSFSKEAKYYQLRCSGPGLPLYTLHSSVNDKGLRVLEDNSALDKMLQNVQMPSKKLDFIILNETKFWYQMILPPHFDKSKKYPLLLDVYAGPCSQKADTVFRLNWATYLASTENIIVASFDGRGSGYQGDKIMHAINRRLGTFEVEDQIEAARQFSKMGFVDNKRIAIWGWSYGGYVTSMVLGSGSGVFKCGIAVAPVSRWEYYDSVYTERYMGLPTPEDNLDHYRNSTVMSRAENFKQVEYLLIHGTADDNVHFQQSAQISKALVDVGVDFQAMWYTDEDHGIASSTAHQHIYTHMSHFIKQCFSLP
Consider `CN(C)c1ccc(N2CC(C)(C)C2=O)cc1` [D1.001], for which the IC50 came to 1.2 µM.

`O=C(Nc1ccccc1CC(=O)N1CCCNCC1)c1cccnc1Sc1ccccc1` [D1.002]: the IC50 worked out at 1.4 µM.

On to `CCOC(=O)O/N=C(N)/C(N)=N/OC(=O)OCC` [D2.006], for which the IC50 came to 133 µM.

Regarding `CCOC(=O)n1ccc(C(=O)Nc2ccccn2)n1` [D2.007], the IC50 worked out at 148 µM.

As for `Cc1ccccc1NC(=O)C(=O)N/N=C/c1cccc(Cl)c1` [D2.008], the IC50 was determined as 275 µM.

Consider `CCC(=O)Oc1cccc(N2C(=O)C3C4C=CC(C3C2=O)C2C(=O)N(c3cccc(OC(=O)CC)c3)C(=O)C42)c1` (centres unmarked) [D3.045], for which the IC50 worked out at 4.2 µM.

On to `CC1=C(C(=O)Nc2ccccc2)C(c2ccccc2Cl)c2c(sc(C(=O)c3ccc(Cl)cc3)c2N)N1` (centres unmarked) [D3.093], for which the IC50 was found to be 112 µM.

Turning to `Cc1ccc(C(=O)NC(NC(=S)Nc2sc3c(c2C(N)=O)CCCC3)C(Cl)(Cl)Cl)cc1` (centres unmarked) [D3.099], the IC50 is 169 µM.

Regarding `Cc1ccc(-n2c(SCC(=O)c3ccccc3)nc3sc4c(c3c2=O)CC(C(C)C)OC4)cc1` (centres unmarked) [D3.102], the IC50 was 209 µM.

On to `COc1ccc2nc(NC(=O)COC(=O)CN3C(=O)c4ccccc4C3=O)sc2c1` [D3.103], for which the IC50 was 224 µM.

With `C=CCOC(=O)C1=CS(=O)(=O)c2ccccc21` [D3.105], the IC50 turned out to be 252 µM.

Consider `CC(=O)Oc1ccc(-n2c(=O)c3ccccc3c3ccccc3c2=O)cc1` [D3.107], for which the IC50 stood at 268 µM.

With `CSc1nc2sc3c(c2c2nnc(SCc4cccc(OC(C)C)c4)n12)CC(C)(C)OC3` [D3.108], the IC50 came to 269 µM.

Turning to `O=C(N/N=C/c1cc(Br)ccc1OC(=O)c1ccc([N+](=O)[O-])cc1)/C(=C\c1ccc2c(c1)OCO2)NC(=O)c1ccccc1` [D3.109], the IC50 worked out at 272 µM.

Take `Cc1ccccc1NC(=O)c1cc2c3c(c1)C1C=CCC1CN3CC1CC=CC21` (centres unmarked) [D3.110]: the IC50 turned out to be 279 µM.

With `COc1ccc(NC(=O)CSc2nnc3n2-c2sc4c(c2C(=O)C3CCc2ccccc2)CC(C)(C)OC4)cc1` (centres unmarked) [D3.111], the IC50 was 284 µM.

The same experiment, now with this note: values without "*" = IC-50; read-out: IC50DPIV.
On to `O=C1NCCCCC1Nc1ccc(N2C(=O)CCCC2=O)cc1[N+](=O)[O-]` (centres unmarked) [D1.003], for which the IC50 was 34.1 µM.

Regarding `COc1ccc(C(=O)CS/C2=N/CCCCCC2)cc1` [D1.004], the IC50 came out at 36.5 µM.

`O=C1/C(=N\NC(=S)Nc2ccccc2F)c2cc(S(=O)(=O)N3CCOCC3)ccc2N1Cc1ccc(Cl)cc1` [D2.004]: the IC50 is 33.4 µM.

With `CCOC(=O)c1n[nH]c2c1C(=O)N(c1ccc([N+](=O)[O-])cc1)C2=O` [D2.005], the IC50 turned out to be 54.5 µM.

On to `CC(C)(C)S(=O)(=O)c1ccc2nc3c(n2c1)CCCC3` [D3.003], for which the IC50 is 15.6 µM.

Regarding `CN(C)CCNc1nc2c(c(=O)n(C)c(=O)n2C)n1Cc1ccccc1Cl` [D3.004], the IC50 turned out to be 7.5 µM.

For the compound `COc1cc2c(cc1OC)CC(C)(C)NC2` [D3.005], the IC50 came out at 6 µM.

In the case of `COC(=O)C1=C(N)N2C(=O)CSC2=C(C(=O)OC)C1` [D3.008], the IC50 was 34.1 µM.

In the case of `CCOC(=O)C1=C2SCC(=O)N2C(N)=C(C#N)C1` [D3.009], the IC50 came out at 14.1 µM.

As for `Nc1nonc1-n1nnc(C(=O)NN=C2c3ccccc3-c3ccccc32)c1-c1ccccc1` [D3.011], the IC50 came to 10.1 µM.

Take `Cc1cccc(-n2c(=O)c3c4c(sc3n3c(SC(C)C(=O)N5CCOCC5)nnc23)COC(C(C)C)C4)c1` (centres unmarked) [D3.012]: the IC50 is 10.1 µM.

On to `CCSc1nnc2n(-c3ccc(OC)cc3)c(=O)c3c4c(sc3n12)CCCC4` [D3.013], for which the IC50 turned out to be 10.8 µM.

`Brc1cccc(/C=N/Nc2nnc3c(n2)[nH]c2ccccc23)c1` [D3.015]: the IC50 stood at 12.2 µM.

On to `O=C1c2ccccc2-c2c1[n+]([O-])c1c([n+]2[O-])CCCC1` [D3.017], for which the IC50 came out at 14 µM.

With `O=C(Nc1ccc(O)c(-c2nc3ccccc3s2)c1)c1ccc([N+](=O)[O-])o1` [D3.018], the IC50 was determined as 14.4 µM.

Turning to `Cc1ccc(S(=O)(=O)CNC(=S)c2ccc3ccccc3c2)cc1` [D3.019], the IC50 stood at 14.5 µM.

Take `Cc1ccccc1N1C(=O)c2sc3nc4c(c(=O)n3c2C1=O)CCC4` [D3.020]: the IC50 worked out at 15.2 µM.

Regarding `CCCC(=O)O/N=C1\C(=O)N(c2ccccc2)c2ccccc21` [D3.021], the IC50 stood at 15.2 µM.

With `CC(C)C1Cc2c(sc3c2c(=O)n(Cc2ccccc2)c2nnc(SCC(=O)O)n32)CO1` (centres unmarked) [D3.024], the IC50 is 18.9 µM.

With `CCC(=O)Oc1ccc(C(=O)Nc2ccc(OCC(=O)O)cc2)cc1` [D3.025], the IC50 was 23.8 µM.

In the case of `COc1cc2c(cc1OC)CC(C)(C)N=C2` [D3.026], the IC50 turned out to be 20.2 µM.

For `CCCn1c(N2CCN(CC(=O)c3c(C)n(C)c4ccccc34)CC2)nc2c1c(=O)[nH]c(=O)n2C` [D3.027], the IC50 stood at 15.2 µM.

Take `COc1cc2c(cc1OC)C13CCN4CC5=C(C6=C7CN8CCC9%10c%11cc(OC)c(OC)cc%11N%11C(=O)CC(O6)C(C7CC89)C%11%10)OC6CC(=O)N2C1C6C5CC43` (centres unmarked) [D3.029]: the IC50 is 22.9 µM.

Consider `O=C1c2ccc(-c3nc4ccccc4c(=O)o3)cc2C(=O)N1c1ccc(Cc2ccc(N3C(=O)c4ccc(-c5nc6ccccc6c(=O)o5)cc4C3=O)cc2)cc1` [D3.032], for which the IC50 was found to be 27.2 µM.

Consider `Cc1nnc(SCC(=O)OCN2C(=O)c3ccccc3C2=O)[nH]1` [D3.033], for which the IC50 was 27.5 µM.

Regarding `N#CC1=C(N)C(C#N)(C#N)C(c2ccccc2)C2CNCC=C12` (centres unmarked) [D3.035], the IC50 was found to be 52.3 µM.

As to `N#Cc1c(NC(=O)C(C(F)(F)F)C(F)(F)F)sc2c1CCC2` [D3.038], the IC50 came out at 30.9 µM.

For the compound `COc1cc2c(cc1OC)C1(CCCC1)CN(CC#N)C2` [D3.039], the IC50 stood at 31.4 µM.

Consider `N#Cc1c(NC(=O)c2ccccc2)sc2c1CCCCC2` [D3.042], for which the IC50 was determined as 33 µM.

In the case of `CCOC(=O)c1c(C)oc2c1c1c(c3ccccc32)OCN(C2CCS(=O)(=O)C2)C1` (centres unmarked) [D3.046], the IC50 came out at 34.2 µM.

Take `CCC(=O)Oc1ccc2c(c1)OC1(OC(C)=O)OC(C)CC1=C2C` (centres unmarked) [D3.047]: the IC50 was determined as 37.4 µM.

Turning to `O=C(Nc1c[nH]c(=O)[nH]c1=O)c1ccc2c(c1)C(=O)N(c1ccc(C(=O)c3ccccc3)cc1)C2=O` [D3.048], the IC50 was determined as 38.2 µM.

In the case of `N#Cc1c(NC(=O)C(C(F)(F)F)C(F)(F)F)sc2c1CCCC2` [D3.049], the IC50 was determined as 39.5 µM.

Consider `O=C1c2ccccc2C(=O)N1c1cccc(-c2csc(N3N=C(c4cccc([N+](=O)[O-])c4)CC3c3ccc(F)cc3)n2)c1` (centres unmarked) [D3.050], for which the IC50 was 39.8 µM.

Consider `O=C1C(Cc2c[nH]c3ccccc23)NC(=S)N1c1ccccc1` (centres unmarked) [D3.051], for which the IC50 is 40.2 µM.

For the compound `COC(=O)C1=C2SCC(=O)N2C(N)=C(C#N)C1` [D3.052], the IC50 amounted to 40.5 µM.

Take `CN1CCN(c2nc3c(c(=O)n(C)c(=O)n3C)n2Cc2cccc(F)c2)CC1` [D3.054]: the IC50 is 41.2 µM.

On to `O=C(/C=C/c1ccco1)Nc1ccc2oc(-c3cccc(Cl)c3Cl)nc2c1` [D3.055], for which the IC50 was determined as 42.4 µM.

As for `N#CC1=C(N)C(C#N)(C#N)C(c2ccccc2)C2CNCC=C12` (centres unmarked) [D3.056], the IC50 was found to be 42.7 µM.

Take `O=C1NC23NC(=O)NC2(N1)c1ccccc1-c1ccccc13` (centres unmarked) [D3.057]: the IC50 is 43.1 µM.

As for `Cn1c(=O)[nH]c(=O)c2c1nc(NCCO)n2Cc1ccccc1Cl` [D3.058], the IC50 turned out to be 44 µM.

Consider `CC(C)(C)C(=O)N1CCN(c2cc(Cl)nc(SCC(=O)N3CCN(Cc4ccc5c(c4)OCO5)CC3)n2)CC1` [D3.059], for which the IC50 amounted to 45.6 µM.

With `CCC(=O)O/N=C(/C)c1cc2ccccc2oc1=O` [D3.060], the IC50 turned out to be 45.9 µM.

Regarding `Cc1nc2c(sc(=S)n2C)c(=O)[nH]1` [D3.061], the IC50 worked out at 46 µM.

`CC(C)c1ccc2c(c1)[C@@H]1C=CC[C@@H]1[C@H](c1ccc(C(=O)O)cc1)N2` [D3.062]: the IC50 stood at 46.4 µM.

Take `Cn1c(=O)n(Cc2ccccc2)c(=O)c2c1nc(N1CCNCC1)n2Cc1ccccc1` [D3.064]: the IC50 was 48.3 µM.

Take `CC(C)C1Cc2c(sc3nc(SCC(=O)c4ccccc4)n(Cc4ccccc4)c(=O)c23)CO1` (centres unmarked) [D3.067]: the IC50 was found to be 52.4 µM.

As for `CCOC(=O)c1c(N2C(=O)C3ON(c4ccccc4)C(c4ccc([N+](=O)[O-])cc4)C3C2=O)sc2c1CCCC2` (centres unmarked) [D3.069], the IC50 was 54.1 µM.

In the case of `Nc1ccc2c(c1)C/C(=C\c1ccco1)C2=O` [D3.070], the IC50 came out at 27.5 µM.

In the case of `COc1cc(C)ccc1N(CCCN1C(=O)c2cccc3cccc(c23)C1=O)C(=O)c1cc(C)cc(C)c1` [D3.073], the IC50 came to 55.4 µM.

Consider `CC(C)C1=CC23CCC4C(C)(C(=O)O)CCCC4(C)C2CC1C1C(=O)N(c2cccc(O)c2)C(=O)C13` (centres unmarked) [D3.074], for which the IC50 amounted to 55.4 µM.

`COc1cc2c(cc1OC)CC1(CCCC1)N=C2` [D3.077]: the IC50 was found to be 59.1 µM.

For `CC(=O)Oc1cc2oc(=O)cc(C)c2cc1OC(C)=O` [D3.078], the IC50 was determined as 59.2 µM.

On to `CC1CCc2c(sc(NC(=O)C(C(F)(F)F)C(F)(F)F)c2C#N)C1` (centres unmarked) [D3.080], for which the IC50 was 59.8 µM.

Consider `O=C(N/N=C/c1cc(Br)c(O)c(Br)c1O)/C(=C\c1ccc2c(c1)OCO2)NC(=O)c1ccccc1` [D3.081], for which the IC50 was determined as 60 µM.

For the compound `Cn1cnnc1SCC(=O)OCN1C(=O)c2ccccc2C1=O` [D3.083], the IC50 came out at 62.4 µM.

For the compound `CSc1nc2sc3c(c2c(=O)n1-c1cccc(C)c1)CC(C)(C)OC3` [D3.088], the IC50 is 80.6 µM.

As to `CNc1nc2c(c(=O)[nH]c(=O)n2C)n1Cc1ccccc1Cl` [D3.091], the IC50 was determined as 27.8 µM.

Take `CC(C)(C)C1CCc2c(sc(NC(=O)C(C(F)(F)F)C(F)(F)F)c2C#N)C1` (centres unmarked) [D3.092]: the IC50 came out at 101 µM.

With `Cc1ccc2nc(-c3ccc(N4C(=O)CC(N5CCC(C)CC5)C4=O)cc3)sc2c1` (centres unmarked) [D3.094], the IC50 turned out to be 116 µM.

Regarding `O=[N+]([O-])c1ccc(C2OCN3COCC23)cc1` (centres unmarked) [D3.095], the IC50 turned out to be 42.4 µM.

As to `Cc1cc(-c2ccc(/C=C(\C#N)c3nc4ccccc4[nH]3)o2)ccc1[N+](=O)[O-]` [D3.096], the IC50 was 138 µM.

Take `CCOc1ccc(/C=N/NC(=O)c2cc(-c3c(OC)ccc4ccccc34)n[nH]2)cc1` [D3.100]: the IC50 was 56.3 µM.

Consider `O=C1CCCC(=O)N1c1ccc(N2CCc3ccccc3C2)c([N+](=O)[O-])c1` [D3.104], for which the IC50 stood at 28.8 µM.

(Values after patent publication US20070037785A1, “Novel dipeptidyl peptidase IV inhibitors used for functionally influencing different cells and treating immunological, infammatory, neuronal, and other diseases” (priority 2003, published 2007).)
